Measurements taken from publication PMC3204421 (Frontiers in Pharmacology, 2011).

Tests used:
[1] = target: T1, GIRK1/GIRK2 channels (AtT20 cells) (Mus musculus, UniProt P48542+P63250); test: GIRK channel fluorescent plate reader assay; assay type: cell-based
T1 sequence (P63250 1-501): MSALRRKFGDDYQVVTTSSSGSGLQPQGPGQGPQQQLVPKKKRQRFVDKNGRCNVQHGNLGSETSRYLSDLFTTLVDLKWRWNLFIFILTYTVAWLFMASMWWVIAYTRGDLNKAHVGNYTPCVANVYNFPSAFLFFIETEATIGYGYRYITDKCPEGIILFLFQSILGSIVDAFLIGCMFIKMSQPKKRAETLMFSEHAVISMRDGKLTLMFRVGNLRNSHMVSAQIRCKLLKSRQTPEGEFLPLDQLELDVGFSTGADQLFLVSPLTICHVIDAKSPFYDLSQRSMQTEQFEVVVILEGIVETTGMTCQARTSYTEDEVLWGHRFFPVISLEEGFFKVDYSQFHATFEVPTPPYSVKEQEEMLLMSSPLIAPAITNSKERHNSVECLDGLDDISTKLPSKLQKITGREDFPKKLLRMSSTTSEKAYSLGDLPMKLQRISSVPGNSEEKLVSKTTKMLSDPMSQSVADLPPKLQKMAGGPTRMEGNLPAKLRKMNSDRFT
T1 sequence (P48542 1-425): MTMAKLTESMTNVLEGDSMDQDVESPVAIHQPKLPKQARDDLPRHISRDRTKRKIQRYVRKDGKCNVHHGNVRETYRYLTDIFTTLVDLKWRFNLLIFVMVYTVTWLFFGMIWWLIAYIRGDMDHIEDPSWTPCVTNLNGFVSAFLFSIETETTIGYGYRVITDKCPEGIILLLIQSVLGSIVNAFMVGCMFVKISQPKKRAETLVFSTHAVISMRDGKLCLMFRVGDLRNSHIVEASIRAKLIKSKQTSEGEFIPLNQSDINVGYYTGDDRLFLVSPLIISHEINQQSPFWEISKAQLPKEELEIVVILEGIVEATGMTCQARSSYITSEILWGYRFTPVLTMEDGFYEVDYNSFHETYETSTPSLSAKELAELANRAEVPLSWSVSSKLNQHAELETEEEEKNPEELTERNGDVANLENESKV

GIRK1/GIRK4 channels = conditions: ref Hashimoto et al., [2008]; Machida et al., [2011]; cited from earlier work
atrial fibrillation = conditions: ref Hashimoto et al., [2008]; Machida et al., [2011]; cited from earlier work
[2] = target: T2, GIRK1/GIRK4 channel (cardiac HL-1 cells) (Mus musculus, UniProt P48545+P63250); test: GIRK channel fluorescent plate reader assay; assay type: cell-based
T2 sequence (P63250 1-501): T1 sequence (P63250 1-501)
T2 sequence (P48545 1-419): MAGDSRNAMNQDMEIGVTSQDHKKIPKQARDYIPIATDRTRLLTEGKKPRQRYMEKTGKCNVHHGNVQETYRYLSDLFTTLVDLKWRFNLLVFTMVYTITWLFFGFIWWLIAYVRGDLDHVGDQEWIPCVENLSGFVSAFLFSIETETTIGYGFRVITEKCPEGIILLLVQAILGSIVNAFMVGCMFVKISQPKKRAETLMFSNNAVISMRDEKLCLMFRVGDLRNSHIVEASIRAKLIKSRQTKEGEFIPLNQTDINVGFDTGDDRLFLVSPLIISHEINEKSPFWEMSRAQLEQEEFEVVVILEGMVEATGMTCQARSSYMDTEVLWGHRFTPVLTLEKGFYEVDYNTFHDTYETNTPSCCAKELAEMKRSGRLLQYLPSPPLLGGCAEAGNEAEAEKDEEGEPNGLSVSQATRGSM

SMILES: [Ba+2].[Cl-].[Cl-] [BaCl2]
- reduction of the somatostatin-mediated fluorescent change ([1]; 0.5 mM, AtT20 cells, n = 6 wells): 67 ± 4%
- reduction of the somatostatin-mediated fluorescent change ([1]; 1 mM, AtT20 cells, n = 6 wells): 92 ± 2%
- inhibition of the somatostatin-mediated fluorescent change ([1]; 2 mM, 5 min pretreatment, AtT20 cells): complete inhibition

SMILES: [Cl-].[K+] [KCl]
- fluorescent change (F/FO) ([1]; 10 mM KCl, depolarization, AtT20 cells): 0.058
- fluorescent change (F/FO) ([1]; 20 mM KCl, depolarization, AtT20 cells): 0.13
- fluorescent change (F/FO) ([1]; 30 mM KCl, depolarization, AtT20 cells): 0.15

SMILES: Cc1cc(CO)nc2cc3c(cc12)OC(C)(C)[C@H](O)[C@H]3NCCc1ccccc1 [NTC-801]
- concentration range of GIRK1/GIRK4 channel block (GIRK1/GIRK4 channels): nanomolar concentrations
- effect in canine model of atrial fibrillation (atrial fibrillation): converted AF to sinus rhythm

SMILES: Cc1nc2c(OCc3ccccc3)cccn2c1CC#N [SCH-28080, 2-methyl-8-(phenylmethoxy)imidazo[1,2-A]pyridine-3-acetonitrile]
- IC50 [1]: 200 nM
- IC50 [2]: 300 nM

SMILES: Nc1ncnc2c1ncn2[C@@H]1O[C@H](CO)[C@@H](O)[C@H]1O [adenosine]
- change in the fluorescent signal ([1]; 10 μM, AtT20 cells): no change

SMILES: N=C(N)NC(=O)c1nc(Cl)c(N)nc1N [amiloride]
- GIRK channel blocking effect ([1]; tested up to 10 μM, AtT20 and HL-1 cells screened, cell line not specified): no blocking effect

SMILES: C[N+](C)(C)CCOC(N)=O [carbachol]
- EC50 [1]: 1000 nM
- peak fluorescent change ([1]; AtT20 cells, n = 6 wells): −0.037

SMILES: COc1ccc2[nH]c([S+]([O-])Cc3ncc(C)c(OC)c3C)nc2c1 (stereo not shown) [omeprazole]
- change in GPCR-sensitive fluorescence during treatment ([1]; cell line not specified (AtT20 / HL-1), Figure 5): no change in fluorescence

SMILES: C[C@H](N)C(=O)NCC(=O)N[C@H]1CSSC[C@@H](C(=O)O)NC(=O)[C@H](CO)NC(=O)[C@H]([C@@H](C)O)NC(=O)[C@H](Cc2ccccc2)NC(=O)[C@H]([C@@H](C)O)NC(=O)[C@H](CCCCN)NC(=O)[C@H](Cc2c[nH]c3ccccc23)NC(=O)[C@H](Cc2ccccc2)NC(=O)[C@H](Cc2ccccc2)NC(=O)[C@H](CC(N)=O)NC(=O)[C@H](CCCCN)NC1=O [somatostatin]
- fluorescent change (F/FO) ([1]; 200 nM, AtT20 cells, n = 6 wells): −0.088
